Experimental data: article PMC10980815, “Cell surface patching via CXCR4-targeted nanothreads for cancer metastasis inhibition” (Nature Communications, 2024)
Values joined by “and” are separate entries in the source; they are usually repeats but may differ in a detail not shown here. Equal entries are not always repeated. Ends that are not written are not given here.

Assays:
[1] = test system: TGF-β; experiment: TGF-β ELISA (intra-tumoral, serum, pulmonary); assay type: in vivo, female BALB/c mice; set-up: Pulmonary TGF-β: unit not given beside the values; Intratumoral TGF-β / Systemic TGF-β: unit not given here; details: for Systemic TGF-β: serum
Description: (§1) 4T1 cells (1 × 10^6 cells) were injected into the third mammary fat pad of female BALB/c mice (6–8-week). […] On day 28, blood samples, lungs and tumors were harvested.
(§2) To explore the “seed-soil” crosstalk, the serum, intra-tumoral, and pulmonary concentration of LOX was determined using enzyme-linked immunosorbent assay kits (CSB-EL013041MO, CUSABIO, https://www.cusabio.com/) according to the manufacturer’s instructions. The serum, intra-tumoral, and pulmonary concentration of TGF-β was determined using mouse TGF-β ELISA Kit (Cat No.: HB1328-Mu). The formation of PMN was investigated through lung slices subjected to immunofluorescent staining of LOX, E-cadherin, and S100A8. For immunofluorescent staining of E-cadherin, Lung slices were stained with CoraLite® Plus 647 anti-mouse CD324 (E-cadherin, 1:300 dilution). For immunofluorescent staining of LOX and S100A8, Lung slices were separately stained with anti-LOX recombinant rabbit monoclonal antibody (1:500 dilution) or S100-A8 / MRP8 rabbit pAb (1:500 dilution), followed by staining with goat anti-rabbit IgG H&L Alexa Fluor® 647 (1:1000 dilution), respectively. Single-cell suspensions of lungs were analyzed using flow cytometry to assess BMDC (CD11b^+Gr1^+) with PE anti-mouse/human CD11b antibody (1:300 dilution) and FITC anti-mouse Ly-6G/Ly-6C (Gr-1) antibody (1:300 dilution). Chemokine concentrations in lungs were determined using a mouse CXCL12 ELISA kit.

[2] = test system: 4T1 cells; experiment: Label-free proteomics analysis; assay type: cell-based, murine; details: Fig. 4f proteomics heatmap value
Description: For proteomics analysis, 4T1 cells (5 × 10^5 cells) were seeded in 12-well plates (NEST Biotechnology). […] Cell samples were submitted for label-free proteomics analysis (Shanghai Omics-space Biotech Co., Ltd., Shanghai, China). The analysis included protein extraction, protein digestion, LC − MS/MS detection (Thermo Scientific Orbitrap-Fusion Lumos), protein quantitation and identification (MaxQuant 1.5.5.1), and bioinformatics analysis.

[3] = test system: CXCL12 in lungs; experiment: Pulmonary CXCL12 ELISA; assay type: in vivo, female BALB/c mice
Description: as §1, §2

[4] = test system: 4T1 cells; experiment: Transwell migration assay; assay type: cell-based, murine; details: stimulated 4T1 cells; individual replicates, n = 3
Description: Wound healing assay and transwell migration and invasion assay were conducted to investigate in vitro metastasis inhibition. For the wound healing assay, 4T1 cells (5 × 10^5 cells) were cultured in 12-well plates (NEST Biotechnology) as monolayer with more than 90% coverage. Sterile 200 μL pipette tips were used to scrape off the cells, generating a linear cell-free area in the middle of the well. Subsequently, cells were washed by PBS to remove debris. In the stimulated group, 4T1 cells were stimulated with CXCL12 (100 ng/mL) for 1 h. […] In the P-BS-CM1 → P-CM2 group, 4T1 cells underwent consecutive treatment with P-BS-CM1 for 1 h and P-CM2 for 1 h before CXCL12 stimulation (1 mg/mL BS equivalence, CM1:CM2, 1:1 mol%). Images of the wound were recorded by a microscope at 0 h and 24 h after CXCL12 stimulation, and the wound healing rate was calculated using Image J software. For the transwell migration and invasion assay, 4T1 cells (5 × 10^5 cells) were seeded in the non-coated upper chamber (Millipore, 8 μm) or GelNest™ matrigel (NEST Biotechnology) pre-coated upper chamber. The cells underwent the same treatment conditions as wound healing assay. After 24 h of treatment, migrated or invaded cells across the membrane were stained with 0.1% crystal violet, imaged by microscope, and quantified by absorbance at 570 nm after dissolution.

[5] = test system: pulmonary CD11b+Gr1+ BMDCs; experiment: Pulmonary BMDCs (CD11b+Gr1+) by flow cytometry; assay type: in vivo, female BALB/c mice
Description: as §1, §2

[6] = ELISA, i.v. days 7, 14, 21, analysis day 28, mouse 1 of 5
[7] = i.v. days 7, 14, 21 (5 mg/kg BS equivalence; P-CM2 24 h later), analysis day 28, mouse 1 of 5

Substance | Intratumoral TGF-β ([1]; replicate 1) | Pulmonary TGF-β ([1]; replicate 1) | Intratumoral TGF-β ([1]; replicate 2) | Pulmonary TGF-β ([1]; replicate 2) | Intratumoral TGF-β ([1]; replicate 3) | Pulmonary TGF-β ([1]; replicate 3) | Intratumoral TGF-β ([1]; replicate 4) | Pulmonary TGF-β ([1]; replicate 4) | Intratumoral TGF-β ([1]; replicate 5) | Pulmonary TGF-β ([1]; replicate 5) | Systemic TGF-β ([1]; replicate 1) | Systemic TGF-β ([1]; replicate 2) | Systemic TGF-β ([1]; replicate 3) | Systemic TGF-β ([1]; replicate 4) | Systemic TGF-β ([1]; replicate 5) | PKA C-alpha ([2]; replicate 1) | VDAC3 ([2]; replicate 1) | PKA C-alpha ([2]; replicate 2) | VDAC3 ([2]; replicate 2) | PKA C-alpha ([2]; replicate 3) | also measured
LGASWHRPDKCCLGYQKRPLPA [Free BS] | 20.98 | 9.12 | 26.43 | 10.3 | 26.11 | 11.1 | 22.3 | 10.7 | 20.45 | 8.9 | 321.2 | 324.5 | 372.1 | 355.2 | 352 | -0.6179 | 0.5272 | 0.3837 | -0.8599 | -0.4642 | VDAC3 ([2]; replicate 3): 0.1524; pulmonary CXCL12 (Fig. 6g) [3, 6]: 440; pulmonary CXCL12 (Fig. 6g) ([3]; same, mouse 2 of 5): 579; pulmonary CXCL12 (Fig. 6g) ([3]; same, mouse 3 of 5): 367; pulmonary CXCL12 (Fig. 6g) ([3]; same, mouse 4 of 5): 552; pulmonary CXCL12 (Fig. 6g) ([3]; same, mouse 5 of 5): 532; Migration content (%) [4]: 99.141% and 98.012% and 94.753%; Pulmonary CD11b+Gr1+ BMDCs (%) [5, 7]: 31.8%; Pulmonary CD11b+Gr1+ BMDCs (%) ([5]; same, mouse 2 of 5): 39.87%; Pulmonary CD11b+Gr1+ BMDCs (%) ([5]; same, mouse 3 of 5): 35.6%; Pulmonary CD11b+Gr1+ BMDCs (%) ([5]; same, mouse 4 of 5): 41%; Pulmonary CD11b+Gr1+ BMDCs (%) ([5]; same, mouse 5 of 5): 39.4%
P-BS: HPMA copolymer-BS conjugate, ~6 BS grafts per polymer (LGASWHRPDKCCLGYQKRPLPA; not fully specified (residues 11, 12); also: about 6 peptides grafted on HPMA copolymer via cysteine-maleimide thioether links) | 15.43 | 5.4 | 15.3 | 5.1 | 19.3 | 7.1 | 17.3 | 6.3 | 15.33 | 4.2 | 276.4 | 245.1 | 225.1 | 267.3 | 241.2 | -1.375 | -0.0121 | 0.3768 | 1.023 | 0.8503 | VDAC3 ([2]; replicate 3): 1.779; pulmonary CXCL12 (Fig. 6g) [3, 6]: 258; pulmonary CXCL12 (Fig. 6g) ([3]; same, mouse 2 of 5): 221; pulmonary CXCL12 (Fig. 6g) ([3]; same, mouse 3 of 5): 368; pulmonary CXCL12 (Fig. 6g) ([3]; same, mouse 4 of 5): 245; pulmonary CXCL12 (Fig. 6g) ([3]; same, mouse 5 of 5): 267; Migration content (%) [4]: 52.3% and 41.02% and 47.1%; Pulmonary CD11b+Gr1+ BMDCs (%) [5, 7]: 25.1%; Pulmonary CD11b+Gr1+ BMDCs (%) ([5]; same, mouse 2 of 5): 26.4%; Pulmonary CD11b+Gr1+ BMDCs (%) ([5]; same, mouse 3 of 5): 34.2%; Pulmonary CD11b+Gr1+ BMDCs (%) ([5]; same, mouse 4 of 5): 28.9%; Pulmonary CD11b+Gr1+ BMDCs (%) ([5]; same, mouse 5 of 5): 29.8%
